Measurements reported in patent US20050192279A1, “Pyridazinones as antagonists of alpha4 integrins” (priority 2004, published 2005).
pIC50: −log10 of the molar value.

Experiments:
α4β1 = target: T1, α4β1 (Homo sapiens, UniProt P05556+P13612); test: Ramos Cell Adhesion Assay (α4β1 Mediated Adhesion/VCAM-1); type: cell-based; conditions: Ramos cell adhesion to hVCAM-1; read-out: α4β1 IC50
T1 construct: Ramos Cell Adhesion Assay (α4β1 Mediated Adhesion/VCAM-1); endogenous in cells; host or cells: Ramos cells
Procedure: Ramos Cell Adhesion Assay (α4β1 Mediated Adhesion/VCAM-1)
Immulon 96 well plates (Dynex) were coated with 100 μL recombinant hVCAM-1 at 4.0 μg/mL in 0.05 M NaCO3 buffer pH 9.0 overnight at 4° C. (R&D Systems). Plates were washed 2 times in PBS with 1% BSA and blocked for 1 h @ room temperature in this buffer. PBS was removed and compounds to be tested (50 μL) were added at 2× concentration. Ramos cells, (50 μL at 2×10^6/mL) labeled with 5 μM Calcein AM (Molecular Probes) for 1 h at 37° C., were added to each well and allowed to adhere for 1 h at room temperature. Plates were washed 4× in PBS+1% BSA and cells were lysed for 15 minutes in 100 μL of 1 M Tris pH 8.0 with 1% SDS.

human α4β7 integrin = target: T2, human α4β7 integrin (Homo sapiens, UniProt P13612+P26010); test: α4β7-K562 Cell Adhesion Assay (α4β7 Mediated Adhesion/MAdCAM-1); type: cell-based; conditions: α4β7-K562 cell adhesion to hMAdCAM-1; read-out: α4β7 IC50
T2 construct: expressed in transfected cells; host or cells: K562 cells, stably transfected
T2 sequence (P13612 34-1032): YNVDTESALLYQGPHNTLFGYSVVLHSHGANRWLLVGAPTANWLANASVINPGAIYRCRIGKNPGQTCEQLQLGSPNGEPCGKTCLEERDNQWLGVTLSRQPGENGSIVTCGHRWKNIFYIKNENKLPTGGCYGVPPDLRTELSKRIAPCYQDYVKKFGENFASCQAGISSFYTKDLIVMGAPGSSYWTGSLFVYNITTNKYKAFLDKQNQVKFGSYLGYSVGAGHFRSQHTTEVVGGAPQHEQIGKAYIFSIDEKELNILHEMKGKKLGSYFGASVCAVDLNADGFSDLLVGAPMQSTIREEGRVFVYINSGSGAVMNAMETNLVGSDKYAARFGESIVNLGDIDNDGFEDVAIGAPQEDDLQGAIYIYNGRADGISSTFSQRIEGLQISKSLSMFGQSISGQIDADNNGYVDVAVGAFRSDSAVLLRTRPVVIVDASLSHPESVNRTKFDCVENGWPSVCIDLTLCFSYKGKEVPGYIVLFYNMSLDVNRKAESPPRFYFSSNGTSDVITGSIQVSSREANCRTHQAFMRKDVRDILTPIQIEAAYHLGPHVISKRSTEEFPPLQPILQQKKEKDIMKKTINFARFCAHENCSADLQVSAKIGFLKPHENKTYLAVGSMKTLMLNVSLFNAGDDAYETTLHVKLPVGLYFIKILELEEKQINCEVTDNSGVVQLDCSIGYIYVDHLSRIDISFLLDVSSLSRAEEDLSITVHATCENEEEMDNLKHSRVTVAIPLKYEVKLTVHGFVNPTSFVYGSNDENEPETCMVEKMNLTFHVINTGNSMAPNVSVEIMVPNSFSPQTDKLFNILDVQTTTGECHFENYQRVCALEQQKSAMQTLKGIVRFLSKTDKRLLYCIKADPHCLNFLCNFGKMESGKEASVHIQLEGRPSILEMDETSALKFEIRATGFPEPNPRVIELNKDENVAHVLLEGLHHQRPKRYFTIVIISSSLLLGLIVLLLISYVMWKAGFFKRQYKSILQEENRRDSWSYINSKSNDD
T2 sequence (P26010 20-798): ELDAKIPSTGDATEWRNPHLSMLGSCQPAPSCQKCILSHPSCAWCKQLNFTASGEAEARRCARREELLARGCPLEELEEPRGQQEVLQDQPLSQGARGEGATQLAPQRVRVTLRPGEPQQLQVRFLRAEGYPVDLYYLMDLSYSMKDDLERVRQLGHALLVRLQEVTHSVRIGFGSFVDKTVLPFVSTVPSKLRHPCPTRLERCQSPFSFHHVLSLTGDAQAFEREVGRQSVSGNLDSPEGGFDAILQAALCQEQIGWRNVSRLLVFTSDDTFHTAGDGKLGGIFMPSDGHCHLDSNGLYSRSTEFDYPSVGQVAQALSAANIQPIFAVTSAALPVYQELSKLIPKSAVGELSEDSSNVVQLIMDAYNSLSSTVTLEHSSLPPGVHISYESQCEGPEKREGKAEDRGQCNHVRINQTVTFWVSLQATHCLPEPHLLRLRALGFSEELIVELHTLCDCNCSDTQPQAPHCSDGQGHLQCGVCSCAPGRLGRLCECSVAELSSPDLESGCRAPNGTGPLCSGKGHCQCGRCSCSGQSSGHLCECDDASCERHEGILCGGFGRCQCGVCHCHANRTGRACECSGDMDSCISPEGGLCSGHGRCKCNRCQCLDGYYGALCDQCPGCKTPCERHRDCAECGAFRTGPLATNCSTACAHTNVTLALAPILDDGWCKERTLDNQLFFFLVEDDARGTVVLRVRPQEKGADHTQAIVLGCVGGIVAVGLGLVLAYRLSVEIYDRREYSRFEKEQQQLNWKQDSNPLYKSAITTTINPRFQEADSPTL
Procedure: α4β7-K562 Cell Adhesion Assay (α4β7 Mediated Adhesion/MAdCAM-1)
M2 anti-FLAG Antibody Coated 96-well plates (Sigma) were coated for 1 hour at 4° C. with 2-8 μl/well recombinant FLAG-hMAdCAM-1 contained in 100 μL of Dulbecco's PBS, pH 7.4, with 1% BSA and 1 mM Mn ^+2 (PBS-BSA-Mn). Plates were washed once with PBS-BSA-Mn. Buffer was removed and compounds to be tested (50 μL) were added at 2× concentration. Stably transfected K562 cells expressing human α4β7 integrin, (50 μL at 2×10^6/mL) that had been labeled with 100 μg/ml carboxymethyl fluorescein diacetate succinimidyl ester (CFDA-SE; Molecular Probes) for 15 min at 37° C. were added to each well and allowed to adhere for 1 h at room temperature. Plates were washed 4× in PBS-BSA-Mn and then cells were lysed for 2 minutes by addtion of 100 μL of PBS without Ca, Mg supplemented with 0.1 M NaOH.

T1 sequence (P05556 21-798, one chain of several): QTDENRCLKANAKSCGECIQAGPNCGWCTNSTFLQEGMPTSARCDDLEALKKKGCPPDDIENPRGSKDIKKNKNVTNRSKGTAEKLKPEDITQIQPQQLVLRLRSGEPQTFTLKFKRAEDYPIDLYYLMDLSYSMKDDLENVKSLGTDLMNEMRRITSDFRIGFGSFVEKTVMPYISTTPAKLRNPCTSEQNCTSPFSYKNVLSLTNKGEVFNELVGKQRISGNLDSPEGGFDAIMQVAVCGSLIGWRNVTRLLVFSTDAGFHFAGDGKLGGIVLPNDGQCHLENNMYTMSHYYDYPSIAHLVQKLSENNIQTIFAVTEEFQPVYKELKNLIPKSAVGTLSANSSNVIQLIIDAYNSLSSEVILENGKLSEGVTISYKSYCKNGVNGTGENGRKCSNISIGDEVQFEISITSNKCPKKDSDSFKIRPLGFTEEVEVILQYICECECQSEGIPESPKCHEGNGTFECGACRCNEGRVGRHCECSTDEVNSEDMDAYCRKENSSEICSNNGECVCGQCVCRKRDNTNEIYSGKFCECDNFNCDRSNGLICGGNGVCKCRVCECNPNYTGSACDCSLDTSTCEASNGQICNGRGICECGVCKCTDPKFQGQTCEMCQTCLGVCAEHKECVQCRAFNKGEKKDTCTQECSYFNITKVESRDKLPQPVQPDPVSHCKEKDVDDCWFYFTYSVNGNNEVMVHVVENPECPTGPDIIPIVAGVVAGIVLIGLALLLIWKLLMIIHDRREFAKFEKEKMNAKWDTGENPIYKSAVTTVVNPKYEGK

SMILES | pIC50 (α4β1) | pIC50 (human α4β7 integrin)
Cn1nc2c(c(-c3ccc(C[C@H](NC(=O)c4c(Cl)cccc4Cl)C(=O)O)cc3)c1=O)OCCO2 [Cpd 6, (S)-2-(2,6-Dichloro-benzoylamino)-3-[4-(2-methyl-3-oxo-2,3,6,7-tetrahydro-[1,4]dioxino[2,3-c]pyridazin-4-yl)-phenyl]-propionic acid] | 7.31 | 9.00
Cn1ncc(OCCOCCO)c(-c2ccc(C[C@H](NC(=O)c3c(Cl)cccc3Cl)C(=O)O)cc2)c1=O [Cpd 7] | 6.72 | 8.70
Cn1ncc(OCCO)c(-c2ccc(C[C@H](NC(=O)c3c(Cl)cccc3Cl)C(=O)O)cc2)c1=O [Cpd 8] | 6.52 | 8.70
CN1CCC(Oc2cnn(C)c(=O)c2-c2ccc(C[C@H](NC(=O)c3c(Cl)cccc3Cl)C(=O)O)cc2)C1 (stereo partly drawn) [Cpd 12] | 6.52 | 8.70
Cn1nc2c(c(-c3ccc(C[C@H](NC(=O)c4c(Cl)cccc4Cl)C(=O)O)cc3)c1=O)NCCO2 [Cpd 13, (S)-2-(2,6-Dichloro-benzoylamino)-3-[4-(2-methyl-3-oxo-3,5,6,7-tetrahydro-2H-pyridazino[3,4-b][1,4]oxazin-4-yl)-phenyl]-propionic acid] | 6.89 | 8.70
Cn1ncc(N2CCOCC2)c(-c2ccc(C[C@H](NC(=O)c3c(Cl)cccc3Cl)C(=O)O)cc2)c1=O [Cpd 20] | 6.32 | 8.52
Cn1ncc(OCCN2CCOCC2)c(-c2ccc(C[C@H](NC(=O)c3c(Cl)cccc3Cl)C(=O)O)cc2)c1=O [Cpd 21] | 7.19 | 8.52
O=C(N[C@@H](Cc1ccc(-c2c(OCCN3CCOCC3)cnn(CCO)c2=O)cc1)C(=O)O)c1c(Cl)cccc1Cl [Cpd 22] | 6.42 | 8.52
CN1CCC(Oc2cnn(CCO)c(=O)c2-c2ccc(C[C@H](NC(=O)c3c(Cl)cccc3Cl)C(=O)O)cc2)CC1 [Cpd 23] | 6.61 | 8.52
CC(C)Oc1cnn(CCO)c(=O)c1-c1ccc(C[C@H](NC(=O)c2c(Cl)cccc2Cl)C(=O)O)cc1 [Cpd 24] | 6.60 | 8.40
Cn1ncc(OCc2cccnc2)c(-c2ccc(C[C@H](NC(=O)c3c(Cl)cccc3Cl)C(=O)O)cc2)c1=O [Cpd 25] | 6.88 | 8.30
CCn1ncc(N2CCOCC2)c(-c2ccc(C[C@H](NC(=O)c3c(Cl)cccc3Cl)C(=O)O)cc2)c1=O [Cpd 29] | < 6.00 | 8.22
COc1cnn(C)c(=O)c1-c1ccc(C[C@H](NC(=O)c2c(Cl)cccc2Cl)C(=O)OCCN(C)C)cc1 [Cpd 34] | 6.60 | 8.10
COc1cnn(C2CCCCC2)c(=O)c1-c1ccc(C[C@H](NC(=O)c2c(Cl)cccc2Cl)C(=O)O)cc1 [Cpd 165] |  | 6.33

Next, values leading:

pIC50 (α4β1) | pIC50 (human α4β7 integrin) | SMILES
5.62 | 8.15 | COc1cnn(C)c(=O)c1-c1ccc(C[C@H](NC(=O)C(C(C)C)n2c(C)ccc2C)C(=O)O)cc1 (mixture of isomers) [Cpd 33, 2-[2(2,5-Dimethyl-pyrrol-1-yl)-3-methyl-butyrylamino]-3-[4-(5-methoxy-2-methyl-3-oxo-2,3-dihydro-pyridazin-4-yl)-phenyl]-propionic acid]
5.91 | 7.74 | COc1cnn(C)c(=O)c1-c1ccc(C[C@H](NC(=O)C(c2ccccc2)C(C)C)C(=O)O)cc1 (mixture of isomers) [Cpd 57]
< 5.30 | 7.74 | COc1cnn(C)c(=O)c1-c1ccc(CC(NC(=O)C(NC(=O)OC(C)(C)C)C(C)C)C(=O)O)cc1 (mixture of isomers) [Cpd 58]
6.62 | 7.44 | COc1cnn(C)c(=O)c1-c1ccc(C[C@H](NC(=O)C(NS(=O)(=O)c2ccccc2[N+](=O)[O-])C(C)C)C(=O)O)cc1 (mixture of isomers) [Cpd 77]
< 5.30 | 6.32 | COc1cnn(C)c(=O)c1-c1ccc(CC(NC(=O)C2CCCN2)C(=O)O)cc1 (mixture of isomers) [Cpd 166]
< 5.30 | 5.89 | COc1cnn(C)c(=O)c1-c1ccc(CC(NC(=O)C2CCCN2C(=O)OC(C)(C)C)C(=O)O)cc1 (mixture of isomers) [Cpd 195]
5.40 | 7.77 | CNC(C(=O)NC(Cc1ccc(-c2c(OC)cnn(C)c2=O)cc1)C(=O)O)C(C)C (single isomer, unassigned) [Cpd 54]
< 5.30 | 6.93 | CNC(C(=O)NC(Cc1ccc(-c2c(OC)cnn(C)c2=O)cc1)C(=O)O)C(C)C (single isomer, unassigned) [Cpd 123]
< 5.30 |  | CCOC(=O)[C@H](Cc1ccc(-c2c(OC)cnn(C)c2=O)cc1)NC(=O)c1c(Cl)cccc1Cl [Cpd 1]
< 5.30 |  | COc1cnn(C)c(=O)c1-c1ccc(C[C@H](NC(=O)C2(NC(C)C)CC2)C(=O)O)cc1 [Cpd 3]
6.77 | 9.00 | CCOc1cnn(C)c(=O)c1-c1ccc(C[C@H](NC(=O)c2c(Cl)cccc2Cl)C(=O)O)cc1 [Cpd 4]
7.64 | 8.70 | COc1cnn(C)c(=O)c1-c1ccc(C[C@H](NC(=O)c2c(Cl)c[n+]([O-])cc2Cl)C(=O)O)cc1 [Cpd 9]
7.36 | 8.52 | COc1cnn(C)c(=O)c1-c1ccc(C[C@H](NC(=O)[C@@H](C(C)C)N(C)C(=O)Cc2ccsc2)C(=O)O)cc1 [Cpd 19]
5.58 | 8.30 | COc1cnn(C)c(=O)c1-c1ccc(C[C@H](NC(=O)[C@H](NC2CCCCC2)C(C)C)C(=O)O)cc1 [Cpd 28]
6.66 |  | COc1cnn(C)c(=O)c1-c1ccc(C[C@H](NC(=O)C2(NC(C)C)CC2)C(=O)O)cc1 [Cpd 146]
 | 6.15 | COC(=O)N[C@@H](Cc1ccc(-c2c(OC)cnn(C)c2=O)cc1)C(=O)O [Cpd 178]
 | 6.09 | COc1cnn(C)c(=O)c1-c1ccc(C[C@H](NC(=O)OC(C)(C)C)C(=O)O)cc1 [Cpd 183]
 | 7.04 | COc1cnn(C)c(=O)c1-c1ccc(C[C@H](NC(=O)C2(OCc3ccccc3)CC2)C(=O)O)cc1 [Cpd 230]
